What all share (format): cell-based
One assay deals with Jurkat cells. As to the kind of experiment: Cell viability assay (WST-1), Jurkat cells. To be noted: Homo sapiens, WST-1, 48-72 hrs, 0.5% fetal calf serum. Here is the method: (§1) Jurkat and Hela cells were cultured in RPMI and EMEM media, respectively, containing 0.5% fetal calf serum. Cells were plated in a volume of 100 μL in a 96 well format. Test compounds were included in the culture media at concentrations ranging from 1 nM to 10 μM for a period of 48-72 hrs. Cell viability was determined using the WST-1 calorimetric mitochondrial reduction assay. Briefly, 10 μL of WST-1 reagent was included in the culture well for a period of 1 to 4 hrs. The WST-1 reaction was read on a multiwell spectrophotometer as the difference in the absorbance between 450 nm and 600 nm (baseline). Absorbance was proportional to the number of living cells in the culture well. Concentration response curves and IC50 values were calculated using GraphPAD Prism graphing and curve fitting program.

For assay [1], the system named is MCF-7 breast cancer cells. As to the kind of experiment: Cell cycle assay (Example 163), G2/M block in MCF-7 cells. To be noted: Homo sapiens, MCF7, 24 h, flow cytometry (PI), Table 2. The protocol: (§2) MCF-7 breast cancer cells and Jurkat T-cell leukemic cells were grown (and maintained) in EMEM and RPMI media, respectively, containing 10% fetal calf serum.
Cells were allowed to adhere for 24 hrs. After adherence, cell culture media was changed to that containing 0.5% FCS. Thirty minutes post-media change, test compounds were added at a concentration of 1 μM. Twenty-fours after test agent addition, cells were analyzed for cell cycle status as described below.
(§3) Cell cycle status was analyzed by flow cytometry. Briefly, cells were collected and washed with FACs buffer (Pharmingen) and resuspended and fixed in 1 mL of 80% ethanol for 1 hr. Cells were washed with FACs buffer and resuspended in propidium iodide(PI)/RNase staining buffer (Pharmingen). PI is a fluorescent dye that labels nucleic acids such as DNA. The fluorescence within a cell (in the presence of PI) is proportional to the amount of DNA within a cell. The cell content of DNA is an indices of status in the cell cycle. […] Cells in the S phase have DNA content that lies between these extremes.
(§4) For testing of cell cycle effects of test agents the percentage of cells within the G1 and G2/M phase were measured.

Another assay relates to Hela cells. As to the kind of experiment: Cell viability assay (WST-1), Hela cells. To be noted: Homo sapiens, HeLa, WST-1, 48-72 hrs, 0.5% fetal calf serum. Here is the method:
as §1

Assay [2] relates to Jurkat T-cell leukemic cells. In words: Cell cycle assay (Example 163), G2/M block in Jurkat cells. To be noted: Homo sapiens, Jurkat, 24 h, flow cytometry (PI), Table 2. Here is the method: as §2
Test agents were added a concentration of 0.1 μM. Twenty-fours after test agent addition, cells were analyzed for cell cycle status as described below.
as §3, §4

Bounds are passed on as bounds.

Take `Oc1cc(Nc2cccnc2)cc(-c2cccc3[nH]ccc23)c1Cc1ccccc1` [2-Benzyl-3-(1H-Indol-4-yl)-5-(pyridin-3-ylamino)-phenol]: the IC50 in the assay on Jurkat cells and in the assay on Hela cells was 1000 to 30000 nM in each case. In addition, in assay [1], the activation at 1 µM is < 50%. Also, in assay [2], the activation at 0.1 µM is < 50%.
Consider `Oc1cc(Nc2cccnc2)cc(-c2ccccc2Cl)c1` [2′-Chloro-5-(pyridin-3-ylamino)-biphenyl-3-ol], for which the IC50 with Jurkat cells is > 3000 nM; with Hela cells it was 1000 to 30000 nM. Besides, the activation at 1 µM in assay [1] is < 50%. For the same molecule, the activation at 0.1 µM in assay [2] is < 50%.
Turning to `Cn1ccc2cccc(-c3cc(O)cc(Nc4cccnc4)c3)c21` [3-(1-Methyl-1H-indol-7-yl)-5-(pyridin-3-ylamino)-phenol], the IC50 was 1000 to 30000 nM in the assay with Jurkat cells and > 3000 nM in the assay on Hela cells. In addition, the activation at 0.1 µM in assay [2] is < 50%.
With `Oc1cc(Nc2cccnc2)cc(-c2cccc3cn[nH]c23)c1` [3-(1H-Indazol-7-yl)-5-(pyridin-3-ylamino)-phenol], the IC50 is 1 to 999 nM with Jurkat cells and 1000 to 30000 nM with Hela cells. For the same molecule, in assay [1], the activation at 1 µM was < 50%. Moreover, in assay [2], the activation at 0.1 µM was < 50%.
Consider `Oc1cc(Nc2cnccn2)cc(-c2cccc3[nH]ccc23)c1` [3-(1H-Indol-4-yl)-5-(pyrazin-2-ylamino)-phenol], for which the IC50 in the assay on Jurkat cells and in the assay on Hela cells was 1 to 999 nM in each case. The activation at 1 µM in assay [1] is ≥ 50%. The activation at 0.1 µM in assay [2] is ≥ 50%.
As for `Oc1cc(Nc2ccncc2)cc(-c2cccc3[nH]ccc23)c1` [3-(1H-Indol-4-yl)-5-(pyridin-4-ylamino)-phenol], the half-maximal inhibitory concentration (IC50) in the assay on Jurkat cells and in the assay on Hela cells was 1 to 999 nM each time. The activation at 1 µM in assay [1] was ≥ 50%. For the same molecule, the activation at 0.1 µM in assay [2] was ≥ 50%.
Turning to `Oc1cc(Nc2cccnc2)cc(-c2ccc3[nH]ccc3c2)c1` [3-(1H-Indol-5-yl)-5-(pyridin-3-ylamino)-phenol], the IC50 is 1 to 999 nM in the assay on Jurkat cells and 1000 to 30000 nM with Hela cells. Further, the activation at 1 µM in assay [1] is < 50%. The activation at 0.1 µM in assay [2] was ≥ 50%.
The like results for `Oc1cc(Nc2cccnc2)cc(-c2ccc3cc[nH]c3c2)c1` [3-(1H-Indol-6-yl)-5-(pyridin-3-ylamino)-phenol] were, in that order, 1000 to 30000 nM, 1000 to 30000 nM, < 50% and < 50%.
Regarding `Oc1cc(Nc2cccnc2)cc(-c2cccc3cc[nH]c23)c1` [3-(1H-Indol-7-yl)-5-(pyridin-3-ylamino)-phenol], the IC50 was 1000 to 30000 nM with Jurkat cells and > 3000 nM in the assay on Hela cells. Also, the activation at 1 µM in assay [1] is < 50%. Besides, the activation at 0.1 µM in assay [2] is < 50%.
On to `Oc1cc(Nc2cccnc2)cc(-c2cnc3ccccc3c2)c1` [3-(Pyridin-3-ylamino)-5-quinolin-3-yl-phenol], for which the IC50 with Jurkat cells lay in the range of 1 to 999 nM; in the assay with Hela cells, 1000 to 30000 nM. Also, the activation at 1 µM in assay [1] was < 50%. Also, in assay [2], the activation at 0.1 µM was < 50%.
For the molecule `Oc1cc(Nc2cccnc2)cc(-c2ccc3c(c2)OCO3)c1` [3-Benzo[1,3]dioxol-5-yl-5-(pyridin-3-ylamino)-phenol], the results for the IC50 in the assay on Jurkat cells and in the assay with Hela cells were 1000 to 30000 nM and > 3000 nM, respectively. In addition, in assay [2], the activation at 0.1 µM was < 50%.
With `COc1ccc(Cc2c(O)cc(Nc3cccnc3)cc2-c2cccc3sccc23)cc1` [3-benzo[b]thiophen-4-yl-2-(4-methoxy-benzyl)-5-(pyridin-3-ylamino)-phenol], the IC50 in the assay with Jurkat cells and with Hela cells was 1000 to 30000 nM throughout. Moreover, the activation at 1 µM in assay [1] was < 50%. Moreover, the activation at 0.1 µM in assay [2] was ≥ 50%.
As to `CN(C)c1cccc(-c2cc(O)cc(Nc3cccnc3)c2)c1` [3′-Dimethylamino-5-(pyridin-3-ylamino)-biphenyl-3-ol], the IC50 with Jurkat cells and with Hela cells was 1000 to 30000 nM throughout. Moreover, in assay [1], the activation at 1 µM is < 50%. Besides, in assay [2], the activation at 0.1 µM was < 50%.
Consider `Oc1cc(Nc2cccnc2)cc(-c2ccccc2C(F)(F)F)c1` [5-(Pyridin-3-ylamino)-2′-trifluoromethyl-biphenyl-3-ol], for which the IC50 is > 3000 nM in the assay with Jurkat cells and 1000 to 30000 nM with Hela cells. Besides, in assay [1], the activation at 1 µM is < 50%. Besides, the activation at 0.1 µM in assay [2] was ≥ 50%.
Taken in the same sequence, the figures for `N#Cc1cnc(Nc2cc(O)cc(-c3cccc4[nH]ccc34)c2)cn1` [5-[3-Hydroxy-5-(1H-indol-4-yl)-phenylamino]-pyrazine-2-carbonitrile] were > 3000 nM, 1000 to 30000 nM, ≥ 50% and < 50%.
On to `Oc1cc(Nc2ccc(O)nc2)cc(-c2cccc3[nH]ccc23)c1` [5-[3-Hydroxy-5-(1H-indol-4-yl)-phenylamino]-pyridin-2-ol], for which the IC50 in the assay on Jurkat cells is 1000 to 30000 nM; in the assay on Hela cells it was 1 to 999 nM. In assay [2], the activation at 0.1 µM was < 50%.
Turning to `O=C(c1cc(O)cc(-c2cccc3[nH]ccc23)c1)c1cccnc1Cl` [(2-Chloro-pyridin-3-yl)-[3-hydroxy-5-(1H-indol-4-yl)-phenyl]-methanone], the IC50 with Jurkat cells and with Hela cells was 1000 to 30000 nM each time. In addition, the activation at 1 µM in assay [1] is < 50%. In addition, the activation at 0.1 µM in assay [2] was < 50%.
For the molecule `O=C(c1cccnc1)c1ccc(O)c(C23CC4CC(CC(C4)C2)C3)c1` [(3-Adamantan-1-yl-4-hydroxy-phenyl)-pyridin-3-yl-methanone], the IC50 is 1000 to 30000 nM in the assay with Jurkat cells and > 3000 nM in the assay on Hela cells. Moreover, in assay [1], the activation at 1 µM was < 50%. Besides, the activation at 0.1 µM in assay [2] is < 50%.
On to `Nc1ccc(C(=O)c2cc(O)cc(-c3cccc4[nH]ccc34)c2)cn1` [(6-Amino-pyridin-3-yl)-[3-hydroxy-5-(1H-indol-4-yl)-phenyl]-methanone], for which the IC50 in the assay on Jurkat cells fell in the range of 1 to 999 nM; in the assay on Hela cells, 1000 to 30000 nM. The activation at 1 µM in assay [1] is ≥ 50%. Besides, the activation at 0.1 µM in assay [2] is < 50%.
The like results for `CS(=O)(=O)Nc1cccc(-c2cc(O)cc(Nc3cccnc3)c2)c1` [N-[5′-Hydroxy-3′-(pyridin-3-ylamino)-biphenyl-3-yl]-methanesulfonamide] were, in that order, 1000 to 30000 nM, 1000 to 30000 nM, ≥ 50% and < 50%.
In the case of `O=[N+]([O-])c1cc(Nc2cccnc2)cc(-c2cccc3[nH]ccc23)c1` [[3-(1H-Indol-4-yl)-5-nitro-phenyl]-pyridin-3-yl-amine], the IC50 with Jurkat cells fell in the range of 1 to 999 nM; with Hela cells, 1000 to 30000 nM. Moreover, the activation at 1 µM in assay [1] was < 50%. Further, in assay [2], the activation at 0.1 µM was < 50%.
For the molecule `Cc1cncc(C(=O)c2cc(O)cc(-c3cccc4[nH]ccc34)c2)c1` [[3-Hydroxy-5-(1H-indol-4-yl)-phenyl]-(5-methyl-pyridin-3-yl)-methanone], the IC50 with Jurkat cells and with Hela cells was 1 to 999 nM in each case. Also, the activation at 1 µM in assay [1] was ≥ 50%. Also, in assay [2], the activation at 0.1 µM is ≥ 50%.
As for `O=C(c1ccc(CO)nc1)c1cc(O)cc(-c2cccc3[nH]ccc23)c1` [[3-Hydroxy-5-(1H-indol-4-yl)-phenyl]-(6-hydroxymethyl-pyridin-3-yl)-methanone], the figures for the IC50 in the assay with Jurkat cells and in the assay on Hela cells were 1000 to 30000 nM and > 3000 nM, respectively. Moreover, the activation at 1 µM in assay [1] is < 50%. Besides, the activation at 0.1 µM in assay [2] was < 50%.
For `O=C(c1ccc(O)nc1)c1cc(O)cc(-c2cccc3[nH]ccc23)c1` [[3-Hydroxy-5-(1H-indol-4-yl)-phenyl]-(6-hydroxypyridin-3-yl)-methanone], the results for the IC50 in the assay on Jurkat cells and in the assay on Hela cells were 1000 to 30000 nM and 1 to 999 nM, respectively. Also, the activation at 0.1 µM in assay [2] was < 50%.
Taken in the same sequence, the figures for `Cc1ccc(C(=O)c2cc(O)cc(-c3cccc4[nH]ccc34)c2)cn1` [[3-Hydroxy-5-(1H-indol-4-yl)-phenyl]-(6-methyl-pyridin-3-yl)-methanone] were 1 to 999 nM, 1000 to 30000 nM and < 50%.
On to `O=C(c1cc(O)cc(-c2cccc3[nH]ccc23)c1)c1cnccn1` [[3-Hydroxy-5-(1H-indol-4-yl)-phenyl]-pyrazin-2-yl-methanone], for which the IC50 in the assay on Jurkat cells and in the assay on Hela cells was 1 to 999 nM in each case. For the same molecule, the activation at 1 µM in assay [1] is < 50%. Besides, the activation at 0.1 µM in assay [2] is < 50%.
